Legend:
CYP11A1 = target: T1, CYP11A1 (Homo sapiens, UniProt P05108); test: H295R Steroid Biosynthesis Inhibition Assay - inhibition of pregnenolone (P) production catalyzed by CYP11A1 in NCI-H295R cells; format: cell-based; details: 48 h, LC-MS/MS, read-out: Inh. of P IC50
T1 construct: measuring the cellular production of pregnenolone (P) catalyzed by CYP11A1; host or cells: NCI-H295R
T1 sequence (P05108 40-521): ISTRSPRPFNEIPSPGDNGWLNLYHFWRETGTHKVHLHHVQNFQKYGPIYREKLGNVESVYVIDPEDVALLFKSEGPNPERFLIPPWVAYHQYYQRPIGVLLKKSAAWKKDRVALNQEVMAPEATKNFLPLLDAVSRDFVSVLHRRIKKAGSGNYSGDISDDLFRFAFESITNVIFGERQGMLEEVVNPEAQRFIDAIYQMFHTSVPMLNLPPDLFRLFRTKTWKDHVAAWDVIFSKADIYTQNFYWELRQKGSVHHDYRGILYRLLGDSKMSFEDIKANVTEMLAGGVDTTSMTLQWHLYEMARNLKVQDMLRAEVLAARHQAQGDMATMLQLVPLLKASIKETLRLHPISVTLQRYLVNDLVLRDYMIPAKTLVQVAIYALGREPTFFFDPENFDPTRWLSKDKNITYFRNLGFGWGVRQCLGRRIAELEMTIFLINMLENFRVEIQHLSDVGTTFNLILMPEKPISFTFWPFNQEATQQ
Description: (§1) Steroid Biosynthesis Inhibition by test compounds in NCI-H295R cells (ATCC) was studied by measuring the cellular production of pregnenolone (P) catalyzed by CYP11A1 and the downstream steroid, testosterone (T). Cells were cultured in Dulbecco's modified eagle's medium F12 (DMEM/F12) with phenol red (Gibco, Cat. No. 11330032) supplemented with 2% UltroserG (Pall, Cat. No. 15950-017, USA), 1% ITS-Premix and 1% penicillin and streptomycin (Hyclone, Cat. No. SV30010, USA). Prior to the assay, cells were thawed and passed 4 times. The maximal passage number used for the assay was 10. For this assay, DMEM/F12 without phenol red supplemented with 10% charcoal-stripped fetal bovine serum (VivaCell, Cat. No. C3830-0500, USA) were used. In a 96-well plate, 60,000 cells/well were plated (90 μL/well) and incubated for 24 h. Test compounds, diluted in a serial dilution ranging from 1000 nM to 0.15 nM in the assay medium, were added to the plate. After 48 h of incubation, solution from each well were collected and transferred to individual 1.5 mL centrifuge tubes, and then 5 ng/mL deuterated testosterone (D3-testosterone) and 50 ng/mL deuterated pregnenolone (D4-pregnenolone) in 200 μL acetonitrile were added. After vigorously mixing for 5 min, the mixture was centrifuged at 12,700 rpm for 15 min. An aliquot of 250 μL supernatant was collected and dried under N2 stream. After addition of 150 μL Methanol:water (1:1, v/v) to the dried product, 50 μL sample of this solution was injected into the LC-MS/MS system for analysis.
(§2) The half-maximal inhibitory concentration (IC50) for steroid biosynthesis inhibition was determined by curve-fitting with the 4-variable inhibitory dose response equation using GraphPad Prism software.
(§3) Testosterone and pregnenolone were analyzed using Shimadzu LC30AD HPLC system (Shimadzu, Kyoto, Japan) coupled with AB SCIEX Qtrap 5500 triple quadrupole mass spectrometer (AB Sciex, Framingham, MA, USA) via ESI interface in the positive ionization mode. An ACQUITY UPLC BEH Shield RP18 column (1.7 μm, 2.1×50 mm, Milford, MA, USA) maintained at 40° C. was used to separate analytes and IS form the sample matrix.
(§4) The mobile phase was a mixture of 10 mM ammonium acetate in water containing 0.2% formic acid (A) and methanol containing 0.2% formic acid (B) at a flow rate of 0.6 mL/min. The gradient program was set as follows: from 0 min to 0.5 min, 60% B; from 0.5 min to 3.5 min, 90% B; from 3.5 min to 4.5 min, 90% B; from 4.51 min to 5.0 min, 60% B. The injection volume was […].
(§5) The MS/MS parameters were set as follows: ion spray voltage, 5500 V; curtain gas, 35 psi; Gas 1, 55 psi; Gas 2: 55 psi; temperature, […]. The optimized multiple reaction monitoring (MRM) fragmentation transitions and MS parameters of each analyte are summarized in Table 1.

[1] = target: T2, testosterone (T) production in NCI-H295R cells (Homo sapiens, UniProt P05108); test: H295R Steroid Biosynthesis Inhibition Assay - inhibition of testosterone (T) production in NCI-H295R cells; format: cell-based; details: 48 h, LC-MS/MS, read-out: Inh. of T IC50
T2 construct: testosterone measured by LC-MS/MS as downstream steroid
T2 sequence (P05108 40-521): T1 sequence (P05108 40-521)
Description: as §1, §2, §3, §4, §5

IC50 (CYP11A1) [µM]	IC50 [1] [µM]	SMILES
≤ 0.04	≤ 0.04	Cc1ccc2c(c1)CN(Cc1cc(=O)c3oc(C4CCN(S(C)(=O)=O)CC4)cc3o1)C2 [Compound 18]
≤ 0.04	≤ 0.04	O=c1cc(CN2Cc3ccccc3C2)oc2cc(C3CC4(CC(O)C4)C3)oc12 (stereo not shown) [Compound 24]
≤ 0.04	≤ 0.04	CS(=O)(=O)N1CCC(c2cnc3cc(CN4Cc5ccccc5C4)cnc3c2)CC1 [Compound 80]
≥ 0.1	≥ 0.101	CS(=O)(=O)N1CCC(c2cc3oc(CN4CCc5ccccc5C4)cc(=O)c3o2)CC1 [Compound 21]
≤ 0.04	0.041 to 0.1	CS(=O)(=O)N1C[C@@H]2[C@H](C1)[C@H]2c1cnc2cc(CN3Cc4ccccc4C3)ccc2n1 [Compound 86]
≥ 0.1	≥ 0.101	OC1CCN(c2ccc3cc(CN4Cc5ccccc5C4)ccc3n2)CC1 [Compound 74]
≤ 0.04	0.041 to 0.1	CS(=O)(=O)N1CCC(COc2coc(CN3CCn4cccc4C3)cc2=O)CC1 [Compound 3]
≤ 0.04	0.041 to 0.1	CS(=O)(=O)N1CCC(c2nc3cc(CN4Cc5ccccc5C4)ccc3s2)CC1 [Compound 128]
≤ 0.04	≤ 0.04	O=S(=O)(C1CC1)N1CCC(c2cnc3cc(CN4Cc5ccccc5C4)ccc3n2)CC1 [Compound 95]
0.04 to 0.1	≥ 0.101	O=c1cc(CN2Cc3ccccc3C2)oc2cc([C@@H]3CCC[C@@H](O)C3)oc12 [Compound 36]
≤ 0.04	≤ 0.04	CS(=O)(=O)N1CCC(c2cnc3cc(CN4Cc5ccccc5C4)ccc3c2)CC1 [Compound 69]
≤ 0.04	≤ 0.04	CS(=O)(=O)N1CCC(c2cnc3cc(CN4Cc5ccc(OC(F)F)cc5C4)ccc3n2)CC1 [Compound 89]
≤ 0.04	≤ 0.04	CS(=O)(=O)N1CCC(c2cc3oc(CN4Cc5ccc(C(F)(F)F)cc5C4)cc(=O)c3o2)CC1 [Compound 20]
≤ 0.04	≤ 0.04	COC(=O)N[C@H]1CC[C@H](c2cc3oc(CN4Cc5ccccc5C4)cc(=O)c3o2)CC1 [Compound 45]
≤ 0.04	≤ 0.04	CS(=O)(=O)N1C[C@@H]2[C@H](C1)[C@H]2c1ccc2cc(CN3Cc4ccccc4C3)ccc2n1 [Compound 56, 6-(isoindolin-2-ylmethyl)-2-((1R,5S,6r)-3-(methylsulfonyl)-3-azabicyclo[3.1.0]hexan-6-yl)quinoline]
≥ 0.1	≥ 0.101	O=S1(=O)CCC(c2cnc3cc(CN4Cc5ccccc5C4)ccc3n2)CC1 [Compound 124]
≤ 0.04	≤ 0.04	CS(=O)(=O)N1CCC(COc2ccc(CN3Cc4ccccc4C3)c3ccccc23)CC1 [Compound 7]
0.04 to 0.1	≥ 0.101	CC(C)NC(=O)N1CCC(c2cnc3cc(CN4Cc5ccccc5C4)ccc3n2)CC1 [Compound 117]
≤ 0.04	≤ 0.04	O=c1cc(CN2Cc3ccccc3C2)oc2cc([C@H]3CC[C@@]4(O)CC4C3)oc12 (stereo partly shown) [Compound 40]
≤ 0.04	≤ 0.04	CCCCS(=O)(=O)N1CCC(c2cnc3cc(CN4Cc5ccccc5C4)ccc3n2)CC1 [Compound 93]
≤ 0.04	≤ 0.04	O=c1cc(CN2Cc3ccccc3C2)oc2cc([C@H]3CC[C@H](O)CC3)oc12 [Compound 29]
0.04 to 0.1	0.041 to 0.1	CS(=O)(=O)N1C[C@@H]2[C@H](C1)[C@H]2c1cc2oc(CN3CCn4cccc4C3)cc(=O)c2o1 [Compound 53]

IC50 (CYP11A1) [µM]	IC50 [1] [µM]	SMILES
0.04 to 0.1	≥ 0.101	O=C(c1ccccc1)N1CCC(c2cnc3cc(CN4Cc5ccccc5C4)ccc3n2)CC1 [Compound 104]
≤ 0.04	≥ 0.101	Cn1c(C2CCN(S(C)(=O)=O)CC2)nc2ccc(CN3Cc4ccccc4C3)cc21 [Compound 130]
≤ 0.04	≤ 0.04	CC(c1cc(=O)c2oc([C@H]3CC[C@H](O)CC3)cc2o1)N1Cc2ccccc2C1 (stereo partly shown) [Compound 31]
0.04 to 0.1	≥ 0.101	CS(=O)(=O)N1CCCC(c2cc3oc(CN4Cc5ccccc5C4)cc(=O)c3o2)C1 (stereo not shown) [Compound 16]
≤ 0.04	≤ 0.04	O=c1cc(CN2Cc3ccccc3C2)oc2cc([C@@H]3CC[C@@H](O)[C@@H](F)C3)oc12 [Compound 30]
≤ 0.04	≤ 0.04	CC(C)S(=O)(=O)N1CCC(c2cnc3cc(CN4Cc5ccccc5C4)ccc3n2)CC1 [Compound 94]
≤ 0.04	0.041 to 0.1	CN(C)C(=O)N1CCC(c2cnc3cc(CN4Cc5ccccc5C4)ccc3n2)CC1 [Compound 121]
≤ 0.04	≤ 0.04	CS(=O)(=O)N1CCC(c2cnc3cc(CN4Cc5ccccc5C4)ccc3n2)CC1 [Compound 55, 6-(isoindolin-2-ylmethyl)-2-(1-(methylsulfonyl)piperidin-4-yl)quinoxaline]
0.04 to 0.1	≥ 0.101	Cn1ccnc1C(=O)N1CCC(c2cnc3cc(CN4Cc5ccccc5C4)ccc3n2)CC1 [Compound 108]
≥ 0.1	≥ 0.101	O=C(NC1COC1)N1CCC(c2cnc3cc(CN4Cc5ccccc5C4)ccc3n2)CC1 [Compound 118]
≤ 0.04	≤ 0.04	CS(=O)(=O)N1CCC(c2cc3oc(CN4Cc5ccccc5C4)cc(=O)c3o2)CC1 [Compound 14]
≤ 0.04	≤ 0.04	O=S(=O)(C1CCCC1)N1CCC(c2cnc3cc(CN4Cc5ccccc5C4)ccc3n2)CC1 [Compound 96]
≤ 0.04	0.041 to 0.1	CS(=O)(=O)N1C[C@@H]2[C@@H](COc3coc(CN4Cc5ccccc5C4)cc3=O)[C@@H]2C1 [Compound 1, 2-(isoindolin-2-ylmethyl)-5-(((1R,5S,6r)-3-(methylsulfonyl)-3-azabicyclo[3.1.0]hexan-6-yl)methoxy)-4H-pyran-4-one]
≤ 0.04	≤ 0.04	CS(=O)(=O)N1CCC(c2cc(=O)c3cc(CN4Cc5ccccc5C4)ccc3o2)CC1 [Compound 60]
≤ 0.04	≤ 0.04	CS(=O)(=O)N1CCC(c2cnc3cc(CN4Cc5ccc(C(F)(F)F)cc5C4)ccc3n2)CC1 [Compound 90]
≤ 0.04	≤ 0.04	CS(=O)(=O)N1CCC(COc2ccc(CN3CCc4ccccc4C3)c3cccnc23)CC1 [Compound 8]
≤ 0.04	≤ 0.04	C[C@]1(c2cc3oc(CN4Cc5ccccc5C4)cc(=O)c3o2)CC[C@H](O)CC1 [Compound 41]
≤ 0.04	≤ 0.04	C[C@]1(O)CC[C@H](c2cc3oc(CN4Cc5ccccc5C4)cc(=O)c3o2)CC1 [Compound 27]
≤ 0.04	0.041 to 0.1	N#C[C@]1(c2cc3oc(CN4Cc5ccccc5C4)cc(=O)c3o2)CC[C@H](O)CC1 [Compound 43]
≤ 0.04	≤ 0.04	CO[C@H]1CC[C@H](c2cc3oc(CN4Cc5ccccc5C4)cc(=O)c3o2)CC1 [Compound 38]
≤ 0.04	≤ 0.04	CS(=O)(=O)N1CCC2(CC1)CC(c1cc3oc(CN4Cc5ccccc5C4)cc(=O)c3o1)C2 [Compound 22]
0.04 to 0.1	≤ 0.04	O=c1cc(CN2Cc3ccccc3C2)oc2cc([C@H]3CC[C@@](O)(C(F)(F)F)CC3)oc12 [Compound 37]
